Measurements: patent US6087355A, “Cephalosporin antibiotics” (Microcide Pharmaceuticals, Inc., priority 1996, dated 2000)
Structures can show the parent of a compound that is named as a salt.

Tests used:
E. coli ATCC 25992 = test: In vitro MIC, agar dilution; assay type: cell-based; conditions: Escherichia coli, ATCC25992, read-out: minimum inhibitory concentration (MIC)
Summary of the method: (§1)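 Agar dilution, Mueller-Hinton; drug 128 → ≤0.25 μg/mL two-fold, duplicates. Inoculum ~10^4 cfu/spot (log phase). 35-36 °C, 16-20 h. MIC = lowest conc. with no growth.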

E. faecalis ATCC 29212 = test: In vitro MIC, agar dilution; assay type: cell-based; conditions: Enterococcus faecalis, ATCC29212, read-out: minimum inhibitory concentration (MIC)
Summary of the method: as §1

E. faecalis VanB(Van^R) = test: In vitro MIC, agar dilution; assay type: cell-based; conditions: Enterococcus faecalis, read-out: minimum inhibitory concentration (MIC)
Summary of the method: as §1

E. faecium A491(Amp^R) = test: In vitro MIC, agar dilution; assay type: cell-based; conditions: Enterococcus faecium, read-out: minimum inhibitory concentration (MIC)
Summary of the method: as §1

E. faecium ATCC 35667 = test: In vitro MIC, agar dilution; assay type: cell-based; conditions: Enterococcus faecium, ATCC35667, read-out: minimum inhibitory concentration (MIC)
Summary of the method: as §1

E. faecium VanA(Van^R) = test: In vitro MIC, agar dilution; assay type: cell-based; conditions: Enterococcus faecium, read-out: minimum inhibitory concentration (MIC)
Summary of the method: as §1

P. aeruginosa ATCC 27853 = test: In vitro MIC, agar dilution; assay type: cell-based; conditions: Pseudomonas aeruginosa, ATCC27853, read-out: minimum inhibitory concentration (MIC)
Summary of the method: as §1

[1] = system: S. aureus 76(Meth^R)(lac^+); test: In vitro MIC, agar dilution; assay type: cell-based; conditions: Staphylococcus aureus, read-out: minimum inhibitory concentration (MIC)
Summary of the method: as §1

[2] = system: S. aureus ATCC 13709(Meth^S); test: In vitro MIC, agar dilution; assay type: cell-based; conditions: Staphylococcus aureus, ATCC13709, S. aureus ATCC 13709(Meth^S); read-out: minimum inhibitory concentration (MIC)
Summary of the method: as §1

S. aureus ATCC 29213 = test: In vitro MIC, agar dilution; assay type: cell-based; conditions: Staphylococcus aureus, ATCC29213, read-out: minimum inhibitory concentration (MIC)
Summary of the method: as §1

[3] = system: S. aureus ATCC 33593(Meth^R); test: In vitro MIC, agar dilution; assay type: cell-based; conditions: Staphylococcus aureus, ATCC33593, read-out: minimum inhibitory concentration (MIC)
Summary of the method: as §1

[4] = system: S. aureus PC1(Meth^S)(lac^+); test: In vitro MIC, agar dilution; assay type: cell-based; conditions: Staphylococcus aureus, read-out: minimum inhibitory concentration (MIC)
Summary of the method: as §1

[5] = system: S. aureus Spain #356(Meth^R); test: In vitro MIC, agar dilution; assay type: cell-based; conditions: Staphylococcus aureus, read-out: minimum inhibitory concentration (MIC)
Summary of the method: as §1

[6] = system: S. haemolyticus 05(Meth^R); test: In vitro MIC, agar dilution; assay type: cell-based; conditions: Staphylococcus haemolyticus, read-out: minimum inhibitory concentration (MIC)
Summary of the method: as §1

[7] = system: S. aureus Col(Meth^R)(lac^-); test: In vitro MIC, agar dilution; assay type: cell-based; conditions: Staphylococcus aureus, read-out: minimum inhibitory concentration (MIC)
Summary of the method: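 Two-fold dilutions (128 to ≤0.25 μg/mL, in duplicate) were poured into Mueller-Hinton agar. Log-phase broth cultures were spot-inoculated at about 10^4 cfu per spot and incubated 35-36°C for 16-20 hours; the MIC was the lowest concentration inhibiting growth. Col is a high-level PBP2a producer; Col 8A is its isogenic PBP2a-lacking partner.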

[8] = system: S. aureus strain ATCC 13709 (methicillin-susceptible); test: Murine model for lethal bacteremic peritonitis; assay type: in vivo, female Swiss-Webster mice; conditions: Staphylococcus aureus, ATCC13709, SC, 72 h; for responders at 0.3125 mg/kg / responders at 0.625 mg/kg / responders at 2.5 mg/kg / responders at 5 mg/kg: read-out: Survivors; for responders at 1.25 mg/kg: read-out: Survivors (converted); for ED50: two equal doses, IP challenge, read-out: ED50
Protocol: Groups of 5 female Swiss-Webster mice (Simonsen, Gilroy, Calif.) each are challenged by the intraperitoneal (IP) route with tenfold increments of a bacterial inoculum. This permits calculation of the mean lethal dose (LD50) and the LD100. For preliminary evaluation of a new antibiotic, mice are challenged IP with an LD100 titer of bacteria. In two equal doses administered at the time of bacterial challenge and 2 hours later, groups of 10 mice each are treated subcutaneously with two-fold increments of the test drug and an antibiotic of known efficacy in mice and humans (i.e., positive control). Mice are observed for 72 h. Those alive at 72 h are considered long term survivors. The total drug dose in mg/kg that protects 50% of mice in a group from death is termed the mean protective dose (PD50). PD50 s are similarly determined for several pathogens. The quantitative endpoints for the new drug are then compared with those obtained with reference antibiotics.
Six ten-fold dilutions of inoculum suspended in 0.5 mL of sterilized 7% hog gastric mucin (Sigma) are injected IP in groups of 5 mice each. A control group of 5 mice receive mucin alone. Mice are observed for 72 h. Those alive at 72 h are considered long term survivors. The mean lethal dose (LD50) and 100% lethal dose (LD100) are determined by the probit test.
For antibiotic efficacy studies, mice are challenged IP with bacterial titers that will afford an LD100 for the test strain. In two equal doses administered at the time of bacterial challenge and 2 hours later, groups of 10 mice each are treated by the subcutaneous route (SC) with twofold increments of the test antibiotic; another group is treated similarly with a reference antibiotic of known efficacy in animals and man. Drug doses can range from 0.01 to 512 mg/kg. If the drug is poorly soluble, Tween 20 or propylene glycol will be employed to solubilize the drug. Animals are observed for 72 h. The 50% protective dose (PD50) is calculated in mg/kg by the probit method. The PD50 is the same as the 50% effective dose (ED50) and the 50% curative dose (CD50). Samples of blood from the hearts of all animals that die and from half the mice that survive are cultured on brain-heart infusion agar. Animals that received a protective dosage of the test drug will be alive at 72 h, although they may appear moderately ill to very ill during the observation period. […] Most of these mice will die within 6 to 48 h. Those alive at 72 h will be considered long term survivors.
(Compound numbers correspond to those in MIC tables; data reported for challenge with methicillin-susceptible S. aureus strain ATCC 13709.)

NCCSCc1cnccc1SC1=C(C(=O)O)N2C(=O)[C@@H](NC(=O)/C(=N\OCCF)c3nc(N)sc3Cl)[C@H]2SC1.O=C(O)C(F)(F)F [Cmpd 33, (7R)-7-[(Z)-2-(2-amino-5-chlorothiazol-4-yl)-2-(2-fluoroethoxyimino)acetamido]-3-(3-aminoethylthiomethylpyrid-4-ylthio)-3-cephem-4-carboxylate, trifluoroacetic acid salt]
MIC (E. coli ATCC 25992): 1 µg/mL | MIC (E. faecalis ATCC 29212): 0.13 µg/mL | MIC (E. faecalis VanB(Van^R)): 0.13 µg/mL | MIC (E. faecium A491(Amp^R)): 8 µg/mL | MIC (E. faecium ATCC 35667): 0.5 µg/mL | MIC (E. faecium VanA(Van^R)): 2 µg/mL | MIC (P. aeruginosa ATCC 27853): 32 µg/mL | MIC [1]: 1 µg/mL | MIC [2]: 0.13 µg/mL | MIC (S. aureus ATCC 29213): 0.25 µg/mL | MIC [3]: 2 µg/mL | MIC [4]: 0.25 µg/mL | MIC [5]: 1 µg/mL | MIC [6]: 2 µg/mL | MIC [7]: 1 µg/mL | responders at 0.3125 mg/kg [8]: 0% | responders at 0.625 mg/kg [8]: 40% | responders at 1.25 mg/kg [8]: 50% | responders at 2.5 mg/kg [8]: 90% | responders at 5 mg/kg [8]: 80% | ED50 [8]: 1.19 mg/kg

NCC(=O)NCCSCc1cnccc1SC1=C(C(=O)O)N2C(=O)[C@@H](NC(=O)/C(=N\O)c3nc(N)sc3Cl)[C@H]2SC1 [Cmpd 29, (7R)-7-[(Z)-2-(2-amino-5-chlorothiazol-4-yl)-2-(hydroxyimino)acetamido]-3-[3-(glycyl)aminoethylthiomethylpyrid-4-ylthio]-3-cephem-4-carboxylate, trifluoroacetic acid salt]
MIC (E. coli ATCC 25992): 8 µg/mL | MIC (E. faecalis ATCC 29212): ≤ 0.06 µg/mL | MIC (E. faecalis VanB(Van^R)): ≤ 0.06 µg/mL | MIC (E. faecium A491(Amp^R)): 4 µg/mL | MIC (E. faecium ATCC 35667): 0.25 µg/mL | MIC (E. faecium VanA(Van^R)): 0.5 µg/mL | MIC (P. aeruginosa ATCC 27853): > 32 µg/mL | MIC [1]: 1 µg/mL | MIC [2]: 0.13 µg/mL | MIC (S. aureus ATCC 29213): 0.25 µg/mL | MIC [3]: 2 µg/mL | MIC [4]: 0.25 µg/mL | MIC [5]: 2 µg/mL | MIC [6]: 2 µg/mL | MIC [7]: 1 µg/mL | responders at 0.3125 mg/kg [8]: 20% | responders at 0.625 mg/kg [8]: 50% | responders at 1.25 mg/kg [8]: 90% | responders at 2.5 mg/kg [8]: 90% | responders at 5 mg/kg [8]: 70% | ED50 [8]: 1.26 mg/kg

N=C(N)NCCSCc1cnccc1SC1=C(C(=O)O)N2C(=O)[C@@H](NC(=O)/C(=N\O)c3csc(N)n3)[C@H]2SC1 [Cmpd 14, (7R)-7-[(Z)-2-(aminothiazol-4-yl)-2-(hydroxyimino)acetamido]-3-(3-guanidinoethylthiomethylpyrid-4-ylthio)-3-cephem-4-carboxylate, trifluoroacetic acid salt]
MIC (E. coli ATCC 25992): 4 µg/mL | MIC (E. faecalis ATCC 29212): 0.25 µg/mL | MIC (E. faecalis VanB(Van^R)): 0.25 µg/mL | MIC (E. faecium A491(Amp^R)): > 32 µg/mL | MIC (E. faecium ATCC 35667): 1 µg/mL | MIC (E. faecium VanA(Van^R)): 2 µg/mL | MIC (P. aeruginosa ATCC 27853): > 32 µg/mL | MIC [1]: 4 µg/mL | MIC [2]: 0.25 µg/mL | MIC (S. aureus ATCC 29213): 0.5 µg/mL | MIC [3]: 2 µg/mL | MIC [4]: 0.5 µg/mL | MIC [5]: 4 µg/mL | MIC [6]: 4 µg/mL | MIC [7]: 4 µg/mL | responders at 0.3125 mg/kg [8]: 10% | responders at 0.625 mg/kg [8]: 30% | responders at 1.25 mg/kg [8]: 30% | responders at 2.5 mg/kg [8]: 90% | responders at 5 mg/kg [8]: 100% | ED50 [8]: 1.13 mg/kg

CNCCSCc1cnccc1SC1=C(C(=O)O)N2C(=O)[C@@H](NC(=O)/C(=N\O)c3csc(N)n3)[C@H]2SC1 [Cmpd 15, (7R)-7-[(Z)-2-(aminothiazol-4-yl)-2-(hydroxyimino)acetamido]-3-(3-methylaminoethylthiomethylpyrid-4-ylthio)-3-cephem-4-carboxylate, trifluoroacetic acid salt]
MIC (E. coli ATCC 25992): 8 µg/mL | MIC (E. faecalis ATCC 29212): 2 µg/mL | MIC (E. faecalis VanB(Van^R)): 0.5 µg/mL | MIC (E. faecium A491(Amp^R)): > 32 µg/mL | MIC (E. faecium ATCC 35667): 2 µg/mL | MIC (E. faecium VanA(Van^R)): 4 µg/mL | MIC (P. aeruginosa ATCC 27853): > 32 µg/mL | MIC [1]: 4 µg/mL | MIC [2]: 0.5 µg/mL | MIC (S. aureus ATCC 29213): 1 µg/mL | MIC [3]: 4 µg/mL | MIC [4]: 1 µg/mL | MIC [5]: 4 µg/mL | MIC [6]: 8 µg/mL | MIC [7]: 4 µg/mL | responders at 0.3125 mg/kg [8]: 20% | responders at 0.625 mg/kg [8]: 0% | responders at 1.25 mg/kg [8]: 20% | responders at 2.5 mg/kg [8]: 50% | responders at 5 mg/kg [8]: 50% | ED50 [8]: 4.63 mg/kg
